This test concerns NSAID induced, gastric lesions followed by colonization of gastric mucosa by orally delivered H. felis. Description: Ulcer healing (cytorepairing and cytoprotective performance) in rats, Sakita's classification. The note with it: at the same MIC90 level. It is filed as in vivo, albino male rats of Wistar origin. The procedure: The cytorepairing and cytoprotective performance of the prepared liposomes was assessed in albino male rats of Wistar origin. The level of ulcer healing (%RUh) following the administration of liposomes against the NSAID induced, gastric lesions followed by colonization of gastric mucosa by orally delivered H. felis suspension culture was studied. The degree of ulceration and rate of ulcer healing was determined following the classification of Sakita (Sakita, T., Oguro, Y., Miwa, T., 1981, In: Handbook of Intestinal Endoscopy 1 ed., Tokyo: Chugi-Igakusha, 375-396) and Tamada (Tamada, F., 1992, In: Diagnostic and Therapeutic Gastrointestinal Endoscopy, KSH Hospital, 23-25), both incorporated herein by reference. Histopathological examination of the gastric mucosa was done using phase contrast research microscope (Leitz-Biomed, Germany).

The text below walks through data of patent US6576625B2, “Targeted vesicular constructs for cytoprotection and treatment of H. pylori infections” (Panacea Biotic Limited, priority 2001, dated 2003).

On to `CC1(C)S[C@@H]2[C@H](NC(=O)[C@H](N)c3ccc(O)cc3)C(=O)N2[C@H]1C(=O)O` [amoxycillin, Amoxycillin], for which the “recovery (ulcer healing)” value is on record as 33.3%.
